Laboratory results reported in publication PMC11984407, “A natural small molecule isoginkgetin alleviates hypercholesterolemia and atherosclerosis by targeting ACLY” (Theranostics, 2025).

Tests used:
[1] = target: T1, recombinant ACLY protein (Homo sapiens, UniProt P53396); experiment: Surface plasmon resonance (OpenSPR); type: binding; settings: SPR, 1:1 Langmuir model; read-out: equilibrium dissociation constant (KD)
T1 sequence (P53396 1-1101): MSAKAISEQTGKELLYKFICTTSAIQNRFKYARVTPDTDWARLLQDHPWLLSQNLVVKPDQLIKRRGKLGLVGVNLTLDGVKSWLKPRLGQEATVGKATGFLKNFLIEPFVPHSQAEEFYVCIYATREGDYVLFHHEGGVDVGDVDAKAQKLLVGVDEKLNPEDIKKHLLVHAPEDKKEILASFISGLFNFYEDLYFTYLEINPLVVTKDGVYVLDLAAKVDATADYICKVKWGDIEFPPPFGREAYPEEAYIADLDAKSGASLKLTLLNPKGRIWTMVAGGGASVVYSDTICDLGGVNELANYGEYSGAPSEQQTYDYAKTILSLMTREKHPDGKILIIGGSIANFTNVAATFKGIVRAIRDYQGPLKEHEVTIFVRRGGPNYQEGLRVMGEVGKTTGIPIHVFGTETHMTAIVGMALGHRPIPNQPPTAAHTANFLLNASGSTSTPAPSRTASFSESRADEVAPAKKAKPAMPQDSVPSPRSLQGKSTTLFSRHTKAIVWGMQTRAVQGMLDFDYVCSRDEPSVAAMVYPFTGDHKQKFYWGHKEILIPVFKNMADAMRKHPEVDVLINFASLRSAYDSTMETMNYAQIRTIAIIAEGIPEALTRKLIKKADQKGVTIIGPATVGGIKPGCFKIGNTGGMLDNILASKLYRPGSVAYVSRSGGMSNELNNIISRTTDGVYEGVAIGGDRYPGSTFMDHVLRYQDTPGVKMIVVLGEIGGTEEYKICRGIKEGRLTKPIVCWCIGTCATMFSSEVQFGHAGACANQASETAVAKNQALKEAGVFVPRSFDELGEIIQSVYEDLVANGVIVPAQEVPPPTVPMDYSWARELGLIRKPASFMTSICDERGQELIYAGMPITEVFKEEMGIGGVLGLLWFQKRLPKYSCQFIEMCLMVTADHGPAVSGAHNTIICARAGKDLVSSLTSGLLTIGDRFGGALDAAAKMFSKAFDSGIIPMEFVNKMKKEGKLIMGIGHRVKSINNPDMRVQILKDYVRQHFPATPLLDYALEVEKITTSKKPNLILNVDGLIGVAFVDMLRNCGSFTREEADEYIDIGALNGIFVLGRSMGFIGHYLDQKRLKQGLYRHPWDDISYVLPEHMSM
Protocol: The interaction between isoginkgetin and ACLY was examined using an OpenSPR instrument (Nicaya, Canada). The recombinant ACLY protein was immobilized on a carboxyl sensor chip (SEN-AU-100-3-COOH; Nicaya, Canada) via a standard amine coupling method. Isoginkgetin was injected into the running buffer at various concentrations (ranging from 0.5 to 8 μM) at a flow rate of 20 μL/min. The interaction parameter KD was determined using TraceDrawer evaluation software based on the 1:1 Langmuir binding model.

[2] = test system: primary mouse hepatocytes (PMH); experiment: Nile red staining of PMH from Acly flox/flox mice infected with Cre adenovirus; type: cell-based; settings: 5 µM, 12 h
Protocol: For the Nile Red staining procedure, primary mouse hepatocytes were treated with IOSGK at varying concentrations for a period of 12 h. Subsequently, the cells were fixed with 4% paraformaldehyde (PFA) and stained with Nile Red ([…], Invitrogen, Carlsbad, CA, USA). The intracellular accumulation of lipids was visualized and quantified using a laser scanning confocal microscope (TCS SP8; Leica, Wetzlar, Germany). Male and female Acly^flox/flox mice were used to isolate PMH and infected with adenovirus vectors carrying either Cre or GFP for 24 h.

[3] = test system: HepG2 cells; experiment: DiI-LDL uptake assay; type: cell-based; settings: HepG2, irrespective of dose or time
Protocol: HepG2 cells were cultured in 24-well plates and incubated in DMEM supplemented with 2% LPDS and 20 µg/mL DiI-LDL (20614ES76, YEASEN, Shanghai, China) for four h at 37 °C in the dark. Subsequently, the cells were rinsed twice with PBS containing 0.4% albumin and then washed three times with PBS. To quantify the fluorescence, 400 µL of isopropanol was added to each well, and the plates were incubated at room temperature for 20 min with continuous shaking. Subsequently, 200 µL aliquots were analyzed using a SpectraMax M2e Microplate Reader (Molecular Devices) at wavelengths of 520-570 nm, as previously described previously.

[4] = test system: LDLR and ACLY protein levels; experiment: Western blot of LDLR and ACLY in Huh-7 cells; type: cell-based, human; settings: Huh-7, various concentrations
Protocol: Western blotting was performed as previously described. In brief, whole-cell lysates from cultured cells and animal tissue were prepared using 1× sample buffer, followed by boiling at 95 °C for 10 min. Subsequently, SDS-PAGE was employed to separate the samples, which were then transferred onto a nitrocellulose membrane (Pall, NY, USA). Subsequently, the membrane was incubated in a blocking buffer for one h at room temperature. Following the removal of the blocking buffer, the blots were incubated with primary antibodies (1:1,000 dilution) at 4 °C overnight. The membrane was washed thrice for 10 min each, using 1× Tris-buffered saline with 0.1% Tween-20 (TBST). Subsequently, the membranes were incubated with IRDye® 680RD Goat anti-Mouse IgG (H + L) or IRDye® 800CW Goat anti-Rabbit IgG (H + L) (1:10,000 dilution, LI-COR, Lincoln, Nebraska, USA) at room temperature for 1 h. Visualization of the blots was carried out using the Li-COR CLx infrared imaging system. GAPDH (60004-1-Ig, Proteintech, Chicago, IL, USA), ACLY (67166-1-Ig, Proteintech, Chicago, IL, USA), LDLR (10785-1-AP, Proteintech, Chicago, IL, USA), β-Actin (66009-1-Ig, Proteintech, Chicago, IL, USA), AMPK (10929-2-AP, Proteintech, Chicago, IL, USA), p-AMPK^T172 (2535, Cell Signaling Technology, Danvers, MA, USA).

SMILES: COc1ccc(-c2cc(=O)c3c(O)cc(O)c(-c4cc(-c5cc(=O)c6c(O)cc(O)cc6o5)ccc4OC)c3o2)cc1 [ISOGK, Isoginkgetin]
- Kd [1]: 5.1 µM
- lipid deposition in PMH when ACLY abrogated or depleted (Nile red) [2]: did not further diminish lipid deposition
- DiI-LDL uptake [3]: no significant effect on LDL uptake
- LDLR and ACLY protein levels [4]: no significant change in the LDLR and ACLY protein levels
